In one assay the test system is KB cell. Nature of the assay: Cancer cell growth inhibitory activity (KB cells, MTT colorimetric determination). Format: cell-based, human. As for the experimental part: In order to evaluate tyrosine kinase inhibitory activity and cancer cell growth inhibitory activity for tyrosine kinase inhibitor of the invention, tests were carried out in partially purified human EGF (epidermal growth factor) receptor tyrosine kinase activity detemination system and in a cell incubation system using human cancer cells. Furthermore, in order to compare and evaluate strength of inhibitory activity, relatively higher active ones amongst known tyrosine kinase inhibitors disclosed in patents or literatures were tested simultaneously.
Accordingly, the KB cell was used to evaluate the effect of test compounds on the growth of cultured cancer cells.
KB cells were plated on a 96-well dish (2.5x 10^3 cell/well) and cultured for 24 hours at 37 ° C under 5% C02 atmosphere in DMEM:F12 (1:1) medium containing 10% FCS, 50 µg/ml penicillin, and 50µg/ml streptomycin. To the culture medium was added a test compound dissolved in DMSO (DMSO final concentration < 0.1%), and the cells were cultured for three days under the same conditions. The test compound was exchanged every 24 hours together with the culture medium.
The amount of living cells were measured by calorimetric determination at wave lengths of 550 nm and 650 nm after developing colour by MTT (3-[4,5-Dimethylthiazol-2-yl]-2,5-diphenyltetrazolium bromide), in accordance with the method of Michael C. Alley et al. (Cancer Research 48 589, 1988).
Cancer cell growth inhibitory activity (CCGIA) was determined according to the following equation. [formula] Symbols "a" and "b" represent the colorimetric values determined in the cancer cell growth assay with and without the test compounds, respectively.

The target in assay [1] is T1, partially purified human EGF (epidermal growth factor) receptor tyrosine kinase (Homo sapiens, UniProt P00533).
T1 construct: The cell membrane fraction, a partially purified EGF receptor, was used as an enzyme source; endogenous in cells; host or cells: A431 human epidermoid carcinoma cells (membrane fraction, 10000xg pellet)
T1 sequence (P01133 971-1023): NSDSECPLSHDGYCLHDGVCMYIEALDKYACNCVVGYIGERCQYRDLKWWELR
T1 sequence (P00533 25-1210): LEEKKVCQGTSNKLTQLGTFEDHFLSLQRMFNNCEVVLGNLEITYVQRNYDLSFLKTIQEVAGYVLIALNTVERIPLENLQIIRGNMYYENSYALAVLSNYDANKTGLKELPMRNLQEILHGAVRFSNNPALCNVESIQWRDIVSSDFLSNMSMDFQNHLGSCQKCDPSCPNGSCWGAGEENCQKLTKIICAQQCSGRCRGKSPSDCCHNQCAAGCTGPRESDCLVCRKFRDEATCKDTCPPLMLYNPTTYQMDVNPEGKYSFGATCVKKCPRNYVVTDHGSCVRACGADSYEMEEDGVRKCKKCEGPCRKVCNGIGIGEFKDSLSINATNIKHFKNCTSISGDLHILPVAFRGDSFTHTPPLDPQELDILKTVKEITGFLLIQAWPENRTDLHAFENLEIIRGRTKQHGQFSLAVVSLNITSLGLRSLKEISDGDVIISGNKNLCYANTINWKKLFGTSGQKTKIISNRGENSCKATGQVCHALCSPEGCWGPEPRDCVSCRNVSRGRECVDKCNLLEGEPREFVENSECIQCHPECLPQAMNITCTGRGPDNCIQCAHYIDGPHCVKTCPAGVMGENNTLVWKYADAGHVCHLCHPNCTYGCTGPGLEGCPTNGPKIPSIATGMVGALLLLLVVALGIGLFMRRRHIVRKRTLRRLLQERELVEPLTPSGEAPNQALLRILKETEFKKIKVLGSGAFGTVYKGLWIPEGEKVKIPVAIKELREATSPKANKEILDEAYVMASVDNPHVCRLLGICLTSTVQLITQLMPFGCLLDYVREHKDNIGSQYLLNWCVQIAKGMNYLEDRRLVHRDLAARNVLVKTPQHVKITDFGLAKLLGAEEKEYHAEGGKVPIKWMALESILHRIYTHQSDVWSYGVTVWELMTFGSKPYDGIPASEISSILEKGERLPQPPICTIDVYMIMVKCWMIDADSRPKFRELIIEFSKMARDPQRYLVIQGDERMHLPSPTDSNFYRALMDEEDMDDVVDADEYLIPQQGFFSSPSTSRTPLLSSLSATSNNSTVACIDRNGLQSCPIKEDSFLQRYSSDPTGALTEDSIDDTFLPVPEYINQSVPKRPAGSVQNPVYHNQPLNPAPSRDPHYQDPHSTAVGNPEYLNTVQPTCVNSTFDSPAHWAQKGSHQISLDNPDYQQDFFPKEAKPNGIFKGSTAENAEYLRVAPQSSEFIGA
Nature of the assay: biochemical.

Where [2] appears, read: Homo sapiens, 72 h; Table-3; KB cells, three days culture, MTT; 3) fumarate, 4) hydrochloride.
The mark [3] stands for this setting: Table-2; […]; 3) fumarate, 4) hydrochloride, read-out: Tyrosine kinase inhibitory activity (IC50).
Setting [4] is: Table-2 continued; […]; 4) hydrochloride, read-out: Tyrosine kinase inhibitory activity (IC50, μ).

Where a name gives a salt, the structure may show the parent alone. Read-outs that look alike come from different tables or passages of the source.

Compound `COc1ccc(C(=O)C#C[Si](C)(C)C)cc1OC` [compound 633] gave a half-maximal inhibitory concentration (IC50) with KB cell (setting [2]) of 14500 nM.

For `CCN(CC)C(C)(C#CC(=O)c1ccc(OC)c(OC)c1)C(C)C` (centres unmarked) [compound 455], the IC50 with KB cell (setting [2]) was found to be 560 nM; in assay [1] (setting [3]), 2900 nM.

For `COc1ccc(C(=O)C#CCNC(=O)OC(C)(C)C)cc1OC` [compound 388], the IC50 in the assay on KB cell (setting [2]) was determined as 1100 nM; in assay [1] (setting [4]), 69 nM.

Consider `COc1ccc(C(=O)C#Cc2ccccn2)cc1OC` [compound 69], for which the IC50 with KB cell (setting [2]) was found to be 1520 nM; in assay [1] (setting [3]), 240 nM.

Take `CCN(CC)CC#CC(=O)c1ccc(OC)c(OC)c1` [compound 222]: the IC50 with KB cell (setting [2]) was determined as 840 nM; in assay [1] (setting [4]), 13 nM.

For `CC(C)(C#CC(=O)c1ccc2c(c1)OCO2)N1CCCCC1` [compound 482], 300 nM corresponded to half-maximal inhibition with KB cell (setting [2]) (IC50).

Take `COc1ccc(C(=O)C#CC(C)(C)Nc2cccnc2)cc1OC` [compound 646]: the IC50 with KB cell (setting [2]) was determined as 2800 nM; in assay [1] (setting [4]), 300 nM.

The compound `COc1ccc(C(=O)C#CC(C)(C(C)C)N(C)CCCO)cc1OC` (centres unmarked) [compound 655] had a 50% inhibitory concentration (IC50) in the assay with KB cell (setting [2]) of 2100 nM.

In the case of `COc1ccc(C(=O)C#CC(C)(C)O)cc1OC` [compound 613], the values for the 50% inhibitory concentration (IC50) (in the assay with KB cell (setting [2]); in assay [1] (setting [3])) were 1410 nM and 150 nM, respectively.

As to `N#CC(=Cc1ccc(O)c(O)c1)C(=O)Nc1ccccc1` [[drawing] 1)], half-maximal inhibition with KB cell (setting [2]) (IC50) required 17000 nM.

On to `COc1ccc(C(=O)C#CC(C)(C)NS(=O)(=O)c2ccc(OC)c(OC)c2)cc1OC` [compound 652], for which, in the assay with KB cell (setting [2]), inhibition was half-maximal at 1300 nM (IC50).

Take `COc1ccc(C(=O)C#Cc2ccccc2)cc1OC` [compound 19]: the values for the IC50 (in the assay on KB cell (setting [2]); in assay [1] (setting [3])) were 2650 nM and 670 nM, respectively.

As for `CC(C)(C#CC(=O)c1ccc(S(C)(=O)=O)cc1)N1CCCCC1` [compound 666], the half-inhibitory concentration (IC50) is 2200 nM in the assay with KB cell (setting [2]) and 2600 nM in assay [1] (setting [4]).

As to `COc1ccc(C(=O)C#CC(C)(C)N(C)C)cc1OC` [compound 402], the concentration for half-maximal inhibition (IC50) was determined as 930 nM in the assay on KB cell (setting [2]) and 330 nM in assay [1] (setting [4]).

Consider `C#CC(=O)c1ccc(OC)c(OC)c1` [compound 2], for which the half-inhibitory concentration (IC50) in the assay on KB cell (setting [2]) amounted to 13000 nM.

On to `CC(C)(C#CC(=O)c1ccc(Cl)c(Cl)c1)N1CCCCC1` [compound 480], for which the IC50 with KB cell (setting [2]) is 510 nM.

Take `CCN(CC)C1(C#CC(=O)c2ccc(OC)c(OC)c2)CCCCC1` [compound 555]: the half-maximal inhibitory concentration (IC50) came to 460 nM with KB cell (setting [2]) and 1700 nM in assay [1] (setting [3]).

`COc1ccc(C(=O)C#CC(C)(C)N2CCCCC2)cc1OC` [compound 477]: the IC50 with KB cell (setting [2]) turned out to be 640 nM; in assay [1] (setting [3]) it was 1300 nM.

With `COc1ccc(C(=O)C#CCN2CCCCC2)cc1OC` [compound 287], the results for the IC50 (with KB cell (setting [2]); in assay [1] (setting [3])) were 1600 nM and 470 nM, respectively.

For `COc1ccc(C(=O)C#CC(=O)Nc2ccccc2)cc1OC` [compound 197], the IC50 in assay [1] (setting [3]) was found to be 1000 nM.

Take `COc1ccc(C(=O)C#CC(C)(C)NC(=O)OCc2cccnc2)cc1OC` [compound 649]: the IC50 with KB cell (setting [2]) turned out to be 1100 nM; in assay [1] (setting [3]) it was 960 nM.

Take `CC(C)(C#CC(=O)c1ccc(F)cc1)N1CCCCC1` [compound 483]: in the assay on KB cell (setting [2]), the half-maximal inhibitory concentration (IC50) came to 340 nM.

Consider `COc1ccc(C(=O)C#CC(C)(C)NC(=O)OCc2ccc[n+](C)c2)cc1OC` [compound 650], for which, in the assay with KB cell (Table-3; KB cells, three days culture, MTT; 3) fumarate, 4) hydrochloride), inhibition was half-maximal at 6500 nM (IC50).

As for `COc1ccc(C(=O)C#CC(C)(NCCCO)C(C)C)cc1OC` (centres unmarked) [compound 654], the IC50 in the assay on KB cell (setting [2]) came out at 1000 nM; in assay [1] (setting [4]), 940 nM.

For `COc1ccc(C(=O)C#CC(C)(C)N)cc1OC` [compound 395, 4-amino-1-(3,4-dimethoxy)phenyl-1-oxo-4-methyl-2-pentyne hydrochloride], the IC50 in assay [1] (setting [3]) was 39 nM.

`COc1ccc(C(=O)C#CC(C)(C)NCC(C)C)cc1OC` [compound 644]: the IC50 in the assay with KB cell (setting [2]) was found to be 2800 nM; in assay [1] (setting [4]), 66 nM.

Consider `COc1ccc(OC)c(C(=O)C#CC(C)(C)N2CCCCC2)c1` [compound 665], for which the figures for the IC50 (in the assay on KB cell (setting [2]); in assay [1] (setting [4])) were 270 nM and 1400 nM, respectively.

With `CSc1ccc(C(=O)C#CC(C)(C)N2CCCCC2)cc1` [compound 484], the IC50 in the assay on KB cell (setting [2]) worked out at 410 nM; in assay [1] (setting [3]), 1300 nM.

In the case of `COc1ccc(C(=O)C#CC(C)(C)Nc2cccc(Cl)c2)cc1OC` [compound 642], the IC50 was found to be 1500 nM in the assay with KB cell (setting [2]) and 96 nM in assay [1] (setting [4]).

In the case of `COc1ccc(C(=O)C#CCN2C(C)(C)CCCC2(C)C)cc1OC` [compound 313], the IC50 in the assay with KB cell (setting [2]) turned out to be 1000 nM; in assay [1] (setting [3]), 180 nM.

On to `COc1ccc(C(=O)C#CC(C)(C)NC(=O)OCc2ccc[n+]([O-])c2)cc1OC` [compound 651], for which the concentration for half-maximal inhibition (IC50) was 3500 nM in the assay with KB cell (setting [2]) and 660 nM in assay [1] (setting [3]).

As for `CC(C)(C#CC(=O)c1cc2c(cc1[N+](=O)[O-])OCO2)N1CCCCC1` [compound 501], the IC50 in the assay on KB cell (setting [2]) was 1480 nM.

Take `COc1cc(C(=O)C#CC(C)(C)N2CCCCC2)cc2c1OCO2` [compound 500]: the values for the concentration for half-maximal inhibition (IC50) (with KB cell (setting [2]); in assay [1] (setting [3])) were 480 nM and 350 nM, respectively.

On to `COc1ccc(C(=O)C#CC(C)(C)N2CCCCC2)cc1` [compound 476], for which, in the assay with KB cell (setting [2]), 550 nM corresponded to half-maximal inhibition (IC50).

For the compound `COc1ccc(C(=O)C#CC(C)(C)Nc2ccccc2)cc1OC` [compound 643], the results for the half-maximal inhibitory concentration (IC50) (in the assay on KB cell (setting [2]); in assay [1] (setting [4])) were 1100 nM and 120 nM, respectively.

As to `CCN(CC)C(C)(C)C#CC(=O)c1ccc(OC)c(OC)c1` [compound 410], the values for the IC50 (in the assay with KB cell (setting [2]); in assay [1] (setting [3])) were 690 nM and 730 nM, respectively.

Consider `COc1ccc(C(=O)C#CC(C)(C)NCCc2c[nH]c3ccccc23)cc1OC` [compound 648], for which the half-inhibitory concentration (IC50) is 1600 nM in the assay on KB cell (setting [2]) and 37 nM in assay [1] (setting [4]).

Take `COc1ccc(C(=O)C#CC(C)(C)NC(=O)OCc2ccccc2)cc1OC` [compound 619]: the half-maximal inhibitory concentration (IC50) was 1100 nM in the assay on KB cell (setting [2]) and 660 nM in assay [1] (setting [3]).

Turning to `COc1ccc(C(=O)C#CC(C)(C)NCc2ccccc2)cc1OC` [compound 647], the IC50 was 790 nM in the assay on KB cell (setting [2]) and 190 nM in assay [1] (setting [4]).

Turning to `CCOc1cc(C=C(C#N)C(N)=O)cc(CSc2ccccc2)c1O` [[drawing] 2)], the IC50 in the assay on KB cell (setting [2]) is 52000 nM; in assay [1] (setting [3]) it was 3200 nM.

With `COc1cccc(C(=O)C#CC(C)(C)N2CCCCC2)c1OC` [compound 664], the concentration for half-maximal inhibition (IC50) in the assay with KB cell (setting [2]) turned out to be 680 nM; in assay [1] (setting [4]), 930 nM.

As for `COc1ccc(C(=O)C#CC(C)(C)Nc2c(C)cccc2C)cc1OC` [compound 645], the IC50 with KB cell (setting [2]) is 3400 nM; in assay [1] (setting [4]), 2200 nM.

The compound `CN(C)c1ccc(C(=O)C#CC(C)(C)N2CCCCC2)cc1` [compound 485] came in with an IC50 in the assay with KB cell (setting [2]) of 690 nM.

`COc1ccc(C(=O)C#CC(C)(C)C)cc1OC` [compound 8]: the concentration for half-maximal inhibition (IC50) with KB cell (setting [2]) came out at 2200 nM.

Compound `COc1ccc(C(=O)C#CC(O)(C(C)C)C(C)C)cc1OC` [compound 627] gave an IC50 in the assay on KB cell (setting [2]) of 680 nM.

`COc1ccc(C(=O)C#CCN(C(C)C)C(C)C)cc1OC` [compound 242]: the half-inhibitory concentration (IC50) with KB cell (setting [2]) came to 2100 nM; in assay [1] (setting [3]), 35 nM.

`CC(C)(C)c1cc(C(=O)C#CC(C)(C)N2CCCCC2)cc(C(C)(C)C)c1O` [compound 667] gave an IC50 with KB cell (setting [2]) of 120 nM.

The values are drawn from patent EP0645379A2, “Benzoylacetylene derivatives” (priority 1993, dated 1995).
